Measurements: ChEMBL document CHEMBL3044541, “Control of crown rot-causing fungal pathogens of banana by inorganic salts and a surfactant” (Crop Prot, 2007)
Activity calls are given as the source filed them. The rule behind the calls is not given here.

What was measured:
Type in all cases: functional
[1] = tested on: Colletotrichum musae; assay: Growth inhibition of Colletotrichum musae assessed as inhibition of mycelial growth up to 160 g/l incubated for 15 min followed by compound washout measured after 7 days in absence of surfactant APSA 80
[2] = tested on: Fusarium verticillioides; assay: Growth inhibition of Fusarium verticillioides assessed as inhibition of mycelial growth up to 160 g/l incubated for 15 min followed by compound washout measured after 7 days in absence of surfactant APSA 80
[3] = tested on: Thielaviopsis paradoxa; assay: Antifungal activity against Ceratocystis paradoxa infected Cavendish banana fruit assessed as reduction in crown rot incubated for 15 min followed by compound washout measured after 2 weeks in presence of surfactant APSA 80 relative to control; set-up: scale not given: the % may be the effect or the level left
[4] = tested on: Lasiodiplodia theobromae; assay: Growth inhibition of Lasiodiplodia theobromae assessed as concentration required for inhibition of mycelial growth incubated for 15 min followed by compound washout measured after 7 days in absence of surfactant APSA 80
[5] = tested on: Lasiodiplodia theobromae; assay: Antifungal activity against Lasiodiplodia theobromae infected Cavendish banana fruit assessed as reduction in crown rot incubated for 15 min followed by compound washout measured after 1 week in absence of surfactant APSA 80 relative to control; set-up: scale not given: the % may be the effect or the level left
[6] = tested on: Lasiodiplodia theobromae; assay: Antifungal activity against Lasiodiplodia theobromae infected Cavendish banana fruit assessed as reduction in crown rot incubated for 15 min followed by compound washout measured after 2 weeks in absence of surfactant APSA 80 relative to control; set-up: scale not given: the % may be the effect or the level left
[7] = tested on: Colletotrichum musae; assay: Antifungal activity against Colletotrichum musae infected Cavendish banana fruit assessed as reduction in crown rot incubated for 15 min followed by compound washout measured after 2 weeks in absence of surfactant APSA 80 relative to control; set-up: scale not given: the % may be the effect or the level left
[8] = tested on: Fusarium verticillioides; assay: Antifungal activity against Fusarium verticillioides infected Cavendish banana fruit assessed as reduction in crown rot incubated for 15 min followed by compound washout measured after 2 weeks in absence of surfactant APSA 80 relative to control; set-up: scale not given: the % may be the effect or the level left
[9] = tested on: Fusarium verticillioides; assay: Antifungal activity against Fusarium verticillioides assessed as reduction in colony diameter at 10 to 160 g/l incubated for 15 min followed by compound washout measured after 7 days in absence of surfactant APSA 80 relative to control; set-up: scale not given: the % may be the effect or the level left
[10] = tested on: Thielaviopsis paradoxa; assay: Antifungal activity against Ceratocystis paradoxa assessed as reduction in colony diameter at 10 to 160 g/l incubated for 15 min followed by compound washout measured after 7 days in presence of surfactant APSA 80 relative to control; set-up: scale not given: the % may be the effect or the level left
[11] = tested on: Fusarium verticillioides; assay: Antifungal activity against Fusarium verticillioides infected Cavendish banana fruit assessed as reduction in crown rot incubated for 15 min followed by compound washout measured after 2 weeks in presence of surfactant APSA 80 relative to control; set-up: scale not given: the % may be the effect or the level left
[12] = tested on: Colletotrichum musae; assay: Antifungal activity against Colletotrichum musae infected Cavendish banana fruit assessed as reduction in crown rot incubated for 15 min followed by compound washout measured after 1 week in presence of surfactant APSA 80 relative to control; set-up: scale not given: the % may be the effect or the level left
[13] = tested on: Colletotrichum musae; assay: Antifungal activity against Colletotrichum musae infected Cavendish banana fruit assessed as reduction in crown rot incubated for 15 min followed by compound washout measured after 2 weeks in presence of surfactant APSA 80 relative to control; set-up: scale not given: the % may be the effect or the level left
[14] = tested on: Fusarium verticillioides; assay: Antifungal activity against Fusarium verticillioides infected Cavendish banana fruit assessed as reduction in crown rot incubated for 15 min followed by compound washout measured after 1 week in presence of surfactant APSA 80 relative to control; set-up: scale not given: the % may be the effect or the level left
[15] = tested on: Thielaviopsis paradoxa; assay: Antifungal activity against Ceratocystis paradoxa infected Cavendish banana fruit assessed as reduction in crown rot incubated for 15 min followed by compound washout measured after 1 week in presence of surfactant APSA 80 relative to control; set-up: scale not given: the % may be the effect or the level left
[16] = tested on: Lasiodiplodia theobromae; assay: Antifungal activity against Lasiodiplodia theobromae infected Cavendish banana fruit assessed as reduction in crown rot incubated for 15 min followed by compound washout measured after 1 week in presence of surfactant APSA 80 relative to control; set-up: scale not given: the % may be the effect or the level left
[17] = tested on: Lasiodiplodia theobromae; assay: Antifungal activity against Lasiodiplodia theobromae infected Cavendish banana fruit assessed as reduction in crown rot incubated for 15 min followed by compound washout measured after 2 weeks in presence of surfactant APSA 80 relative to control; set-up: scale not given: the % may be the effect or the level left
[18] = tested on: Fusarium verticillioides; assay: Antifungal activity against Fusarium verticillioides infected Cavendish banana fruit assessed as reduction in crown rot incubated for 15 min followed by compound washout measured after 1 week in absence of surfactant APSA 80 relative to control; set-up: scale not given: the % may be the effect or the level left
[19] = tested on: Thielaviopsis paradoxa; assay: Antifungal activity against Ceratocystis paradoxa infected Cavendish banana fruit assessed as reduction in crown rot incubated for 15 min followed by compound washout measured after 2 weeks in absence of surfactant APSA 80 relative to control; set-up: scale not given: the % may be the effect or the level left
[20] = tested on: Thielaviopsis paradoxa; assay: Antifungal activity against Ceratocystis paradoxa assessed as reduction in colony diameter at 10 to 160 g/l incubated for 15 min followed by compound washout measured after 7 days in absence of surfactant APSA 80 relative to control; set-up: scale not given: the % may be the effect or the level left
[21] = tested on: Lasiodiplodia theobromae; assay: Antifungal activity against Lasiodiplodia theobromae assessed as reduction in colony diameter at 10 to 160 g/l incubated for 15 min followed by compound washout measured after 7 days in absence of surfactant APSA 80 relative to control; set-up: scale not given: the % may be the effect or the level left
[22] = tested on: Colletotrichum musae; assay: Antifungal activity against Colletotrichum musae infected Cavendish banana fruit assessed as reduction in crown rot incubated for 15 min followed by compound washout measured after 1 week in absence of surfactant APSA 80 relative to control; set-up: scale not given: the % may be the effect or the level left
[23] = tested on: Fusarium verticillioides; assay: Antifungal activity against Fusarium verticillioides assessed as reduction in colony diameter at 10 to 160 g/l incubated for 15 min followed by compound washout measured after 7 days in presence of surfactant APSA 80 relative to control; set-up: scale not given: the % may be the effect or the level left
[24] = tested on: Fusarium verticillioides; assay: Antifungal activity against Fusarium verticillioides infected Cavendish banana fruit assessed as reduction in crown rot incubated for 15 min followed by compound washout measured after 3 weeks in absence of surfactant APSA 80 relative to control; set-up: scale not given: the % may be the effect or the level left; conditions: pooled result: one value given for 4 cell lines, strains, targets or settings
[25] = tested on: Lasiodiplodia theobromae; assay: Growth inhibition of Lasiodiplodia theobromae assessed as concentration required for inhibition of mycelial growth incubated for 15 min followed by compound washout measured after 7 days in presence of surfactant APSA 80
[26] = tested on: Colletotrichum musae; assay: Antifungal activity against Colletotrichum musae assessed as reduction in colony diameter at 10 to 160 g/l incubated for 15 min followed by compound washout measured after 7 days in presence of surfactant APSA 80 relative to control; set-up: scale not given: the % may be the effect or the level left
[27] = tested on: Colletotrichum musae; assay: Antifungal activity against Colletotrichum musae assessed as reduction in colony diameter at 10 to 160 g/l incubated for 15 min followed by compound washout measured after 7 days in absence of surfactant APSA 80 relative to control; set-up: scale not given: the % may be the effect or the level left
[28] = tested on: Thielaviopsis paradoxa; assay: Antifungal activity against Ceratocystis paradoxa infected Cavendish banana fruit assessed as reduction in crown rot incubated for 15 min followed by compound washout measured after 1 week in absence of surfactant APSA 80 relative to control; set-up: scale not given: the % may be the effect or the level left
[29] = tested on: Lasiodiplodia theobromae; assay: Antifungal activity against Lasiodiplodia theobromae assessed as reduction in colony diameter at 10 to 160 g/l incubated for 15 min followed by compound washout measured after 7 days in presence of surfactant APSA 80 relative to control; set-up: scale not given: the % may be the effect or the level left
[30] = tested on: Fusarium verticillioides; assay: Antifungal activity against Fusarium verticillioides infected Cavendish banana fruit assessed as reduction in crown rot incubated for 15 min followed by compound washout measured after 3 weeks in presence of surfactant APSA 80 relative to control; set-up: scale not given: the % may be the effect or the level left; conditions: pooled result: one value given for 4 cell lines, strains, targets or settings

## O=C([O-])[O-].[Na+].[Na+]
[1]
  Activity: inactive
[2]
  Activity: inactive

## O=C([O-])O.[Na+] [SODIUM BICARBONATE]
[3]
  Activity: 0%
[4]
  Activity: 150 g/L
[5]
  Activity: 0%
[6]
  Activity: 25%
[7]
  Activity: 25%
[8]
  Activity: 25%
[9]
  Activity: 0%
[10]
  Activity: 76%
[11]
  Activity: 0%
[12]
  Activity: 0%
[13]
  Activity: 0%
[14]
  Activity: 0%
[15]
  Activity: 0%
[16]
  Activity: 0%
[17]
  Activity: 0%
[18]
  Activity: 0%
[19]
  Activity: 25%
[20]
  Activity: 36%
[21]
  Activity: 46%
[22]
  Activity: 0%
[23]
  Activity: 50%
[24]
  Activity: 58%
[25]
  Activity: 100 g/L
[26]
  Activity: 80%
[27]
  Activity: 18%
[28]
  Activity: 0%
[29]
  Activity: 72%
[30]
  Activity: 12%
